In patent publication US20260109707A1, “HETEROBIFUNCTIONAL COMPOUNDS AND METHODS OF TREATING DISEASE” (Halda Therapeutics OpCo. Inc., priority 2022, published 2026):
Like-named read-outs stand apart in the source and are kept apart here.

Key:
[1] = system: T-Rex 293 cell line SC3 cells having increased expression of androgen receptor protein due to exposure to doxycycline; assay: Cellular growth inhibition assay, T-Rex 293 SC3 cells with doxycycline (CellTiter-Glo, 72 hours); format: cell-based; details: T-Rex 293 SC3 cells with increased androgen receptor expression due to doxycycline (10 ng/mL)
Summary of the method: (§1)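 Growth inhibition is measured in an inducible AR-expressing T-Rex 293 clone, SC3, cultured with or without 10 ng/mL doxycycline in hormone-depleted medium. Test compounds are applied for 72 hours. GI50 values derive from CellTiter-Glo 2.0 signal fitted by four-parameter regression.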

[2] = system: T-Rex 293 cell line SC3 cells lacking increased expression of androgen receptor protein; assay: Cellular growth inhibition assay, T-Rex 293 SC3 cells without doxycycline (CellTiter-Glo, 72 hours); format: cell-based; details: T-Rex 293 cell line SC3 cells not exposed to doxycycline (lacking increased androgen receptor expression)
Summary of the method: as §1

VCaP cells = assay: Cellular growth inhibition assay for VCaP cells (CellTiter-Glo, 72 hours); format: cell-based, human
Summary of the method: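 Luminescent viability signal after 72 h of compound exposure gave GI50 values by four-parameter nonlinear regression. Compounds were added in 0.5% DMSO to cells plated 24 h earlier at 5000/well in DMEM containing 10% FBS.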

Compound | GI50 ([1]; 72 h) | GI50 ([2]; 72 h) | GI50 (VCaP cells; Homo sapiens, VCaP, 72 h) | GI50 [1] | GI50 [2] | GI50 (VCaP cells)
Cc1sc2c(c1C)C(c1ccc(CC3CC(CC4CCN(c5ccc(C(=O)N[C@H]6CC[C@H](Oc7ccc(C#N)c(Cl)c7)CC6)nn5)CC4)C3)cc1)=N[C@@H](C)c1nnc(C)n1-2 (stereo partly drawn) [I-628] | < 500 nM | > 3000 nM | < 500 nM |  |  | 
Cc1sc2c(c1C)C(c1ccc(N3CC(C4CCN(c5ccc(C(=O)N[C@H]6CC[C@H](Oc7ccc(C#N)c(Cl)c7)CC6)nn5)CC4)C3)nc1)=NC1(CC1)c1nnc(C)n1-2 [I-503] |  |  |  | < 500 nM | > 3000 nM | 1500 to 3000 nM
Cc1sc2c(c1C)C(c1ccc(Cl)cc1)=N[C@@H](CC(=O)NCCOCCOCCOCCOCCOCCOCCOC1CCN(c3ccc(C(=O)N[C@H]4CC[C@H](Oc5ccc(C#N)c(Cl)c5)CC4)nn3)CC1)c1nnc(C)n1-2 [I-4, N-[4-(3-chloro-4-cyano-phenoxy)cyclohexyl]-6-[14-[2-[2-[2-[2-[2-[2-[2-[[2-[(9S)-7-(4-chlorophenyl)-4,5,13-trimethyl-3-thia-1,8,11,12-tetrazatricyclo[8.3.0.2,6]trideca-2(6),4,7,10,12-pentaen-9-yl]acetyl]amino]ethoxy]ethoxy]ethoxy]ethoxy]ethoxy]ethoxy]ethoxy]-1-piperidyl]pyridazine-3-carboxamide] | 500 to 1500 nM | > 3000 nM | < 500 nM |  |  | 
Cc1sc2c(c1C)C(c1ccc(NCC3CCCCN3c3ncc(C(=O)N[C@H]4CC[C@H](Oc5ccc(C#N)c(Cl)c5)CC4)cn3)cc1)=NC(Cc1ncco1)c1nnc(C)n1-2 (stereo partly drawn) [I-787] | < 500 nM | < 500 nM | 500 to 1500 nM |  |  | 
Cc1sc2c(c1C)C(c1cccc(OC3CCC4(CCN(c5ccc(C(=O)N[C@H]6CC[C@H](Oc7ccc(C#N)c(Cl)c7)CC6)nn5)C4)C3)c1)=N[C@@H](C)c1nnc(C)n1-2 (stereo partly drawn) [I-749] |  |  |  | < 500 nM | 500 to 1500 nM | < 500 nM
Cc1sc2c(c1C)C(c1ccc(Cl)cc1)=N[C@@H](CC(=O)NCCCCCOC1CCN(c3ccc(C(=O)N[C@H]4CC[C@H](Oc5ccc(C#N)c(Cl)c5)CC4)nn3)CC1)c1nnc(C)n1-2 [I-5] | < 500 nM | < 500 nM | < 500 nM |  |  | 
Cc1sc2c(c1C)C(c1ccc(C3CCC4(CCCN(c5ccc(C(=O)N[C@H]6CC[C@H](Oc7ccc(C#N)c(Cl)c7)CC6)nn5)C4)CC3)cc1)=NC(C(F)(F)F)c1nnc(C)n1-2 (stereo partly drawn) [I-695] |  |  |  | > 3000 nM | > 3000 nM | > 3000 nM
CC[C@@H]1N=C(c2ccc(C#CC3CC4(C3)CN(c3ccc(C(=O)N[C@H]5CC[C@H](Oc6ccc(C#N)c(Cl)c6)CC5)nn3)C4)cc2)c2c(sc(C)c2C)-n2c(C)nnc21 [I-531] | < 500 nM | < 500 nM | < 500 nM |  |  | 
COCC[C@@H]1N=C(c2ccc(N3CCC4(CC3)CCN(c3ccc(C(=O)N[C@H]5CC[C@H](Oc6ccc(C#N)c(Cl)c6)CC5)nn3)C4)cc2)c2c(sc(C)c2C)-n2c(C)nnc21 [I-567] | < 500 nM | < 500 nM | < 500 nM |  |  | 
Cc1sc2c(c1C)C(c1ccc(C3CCC4(CC3)CCN(c3ccc(C(=O)N[C@H]5CC[C@H](Oc6ccc(C#N)c(Cl)c6)CC5)nn3)C4)cc1)=NC1(CC1)c1nnc(C)n1-2 (stereo partly drawn) [I-518] |  |  |  | < 500 nM | > 3000 nM | < 500 nM
CCNC(=O)C[C@@H]1N=C(c2ccc(N3CC(CC4CN(c5ccc(C(=O)N[C@H]6CC[C@H](Oc7ccc(C#N)c(Cl)c7)CC6)nn5)C4)C3)cc2)c2c(sc(C)c2C)-n2c(C)nnc21 [I-66] | < 500 nM | 500 to 1500 nM | < 500 nM |  |  | 
Cc1sc2c(c1C)C(c1ccc(CCN3[C@H](C)CN(c4ccc(C(=O)N[C@H]5CC[C@H](Oc6ccc(C#N)c(Cl)c6)CC5)nn4)C[C@@H]3C)cc1)=N[C@@H](Cc1ncco1)c1nnc(C)n1-2 [I-466] | < 500 nM | < 500 nM | < 500 nM |  |  | 
Cc1sc2c(c1C)C(c1ccc(C3CCC4(CCN(c5ccc(C(=O)N[C@H]6CC[C@H](Oc7ccc(C#N)c(Cl)c7)CC6)nn5)C4)C3)cc1)=N[C@@H](C)c1nnc(C)n1-2 (stereo partly drawn) [I-822, N-[4-(3-chloro-4-cyano-phenoxy)cyclohexyl]-6-[8-[4-[(9S)-4,5,9,13-tetramethyl-3-thia-1,8,11,12-tetrazatricyclo[8.3.0.02,6]trideca-2(6),4,7,10,12-pentaen-7-yl]phenyl]-2-azaspiro[4.4]nonan-2-yl]pyridazine-3-carboxamide] |  |  |  | < 500 nM | < 500 nM | < 500 nM
Cc1sc2c(c1C)C(c1ccc(CCCC3CCCN(c4ccc(C(=O)N[C@H]5CC[C@H](Oc6ccc(C#N)c(Cl)c6)CC5)nn4)CC3)cn1)=N[C@@H](C)c1nnc(C)n1-2 (stereo partly drawn) [I-699] | < 500 nM |  | < 500 nM |  | > 3000 nM | 
CCNC(=O)C[C@@H]1N=C(c2ccc(N3CC(N(C4CC4)C4CN(c5ccc(C(=O)N[C@H]6CC[C@H](Oc7ccc(C#N)c(Cl)c7)CC6)nn5)C4)C3)cc2)c2c(sc(C)c2C)-n2c(C)nnc21 [I-56] | < 500 nM | < 500 nM | < 500 nM |  |  | 
Cc1sc2c(c1C)C(c1ccc(N3CC(C4CCN(c5ccc(C(=O)N[C@H]6CC[C@H](Oc7ccc(C#N)c(Cl)c7)CC6)nn5)CC4)C3)nc1)=NCc1nnc(C)n1-2 [I-478] | < 500 nM | > 3000 nM | < 500 nM |  |  | 
